{"source": "patent US20230390356A1", "about": "“HAIR GROWTH AGENT” (ADJUVANT HOLDINGS CO., LTD., priority 2020, published 2023)", "key": {"[1]": {"test_system": "hair shafts (zigzag hairs) of skin samples transplanted in Balb/c nu/nu mice", "test": "Measurement of increase in hair diameter on hair shafts from Exemplary Test 1", "assay_type": "in vivo", "description": "Measurement of increase in hair diameter was carried out using hair shafts that had completed the second cycle at the foregoing Exemplary Test 1. Of the hair shafts that were collected, three zigzag hairs were used for measurement of increase in hair diameter. Three locations were selected in regions where diameter was large in the central portions thereof using a square […] on a side. For each of the selected regions, five different locations were further selected, and hair shaft diameter of the zigzag hairs thereat was measured to evaluate the degree to which increase in hair diameter had occurred.\nHere, ** at FIG. 2 and TABLE 2 indicates p<0.01, i.e., that the results are significant."}, "[2]": {"test_system": "FGF-7 gene", "test": "FGF-7 gene expression in human dermal papilla cells by real-time PCR", "assay_type": "cell-based", "settings": "24 hours, FIG. 4", "description": "Testing and evaluation were carried out with maintenance and culture of human dermal papilla cells being performed in the same manner as at Exemplary Test 3, above.\nAs drugs for testing, drug solutions of the following respective concentrations (final concentrations) were prepared and used. • Comparative Example 1: 100 μM adenosine • Working Example 1: 1 μM palmitoyl dipeptide-5 diaminobutyloyl hydroxythreonine • Working Example 2: 10 μM palmitoyl dipeptide-5 diaminobutyloyl hydroxythreonine • Working Example 3: 300 μM palmitoyl dipeptide-5 diaminobutyloyl hydroxythreonine\nA 24-well plate was seeded with human dermal papilla cells so as to obtain 6×10^3 thereof per well. […]\nFollowing culture, total RNA was extracted from the respective wells and was recovered, and this was reverse-transcribed into cDNA. […] The GAPDH gene was used as an internal standard, the amount of FGF-7 gene expression being calculated relative to the negative control group.\nA FastGene RNA Basic Kit (Catalog No. FG-80250; Nippon Genetics Co., Ltd. (Japan)) was used to recover total RNA from cells. […] Concentration of the recovered RNA was measured using a NanoDrop Lite (Catalog No. ND-LITE; Thermo Fisher Scientific K.K.), and this was stored at −80° C. until the following cDNA creation procedure. […]"}, "[3]": {"test_system": "human dermal papilla cells", "test": "Dermal papilla cell growth promotion (Cell Count Reagent SF absorbance)", "assay_type": "cell-based", "settings": "10.268375 to 328.588 μM", "description": "Human dermal papilla cells (Catalog No. CA602t05a: derived from person: Toy obo Co., Ltd. (Japan)) were purchased, testing and evaluation being carried out with maintenance and culture of cells being performed as described in the protocol.\nAs drugs for testing, drug solutions consisting of culture medium for human dermal papilla cells containing palmitoyl dipeptide-5 diaminobutyloyl hydroxythreonine in the following respective concentrations (final concentrations) were prepared, and these were used. • Working Example 1: 10.268375 μM • Working Example 2: 20.53675 μM • Working Example 3: 41.0735 μM • Working Example 4: 82.147 μM • Working Example 5: 164.294 μM • Working Example 6: 328.588 μM\nA 96-well plate was seeded with human dermal papilla cells so as to obtain 1×10^3 thereof per well. […] After this had been added thereto, absorbance (measurement wavelength 450 nm; reference wavelength 620 nm) of the culture supernatant was measured. Based on these values, the cell growth rates at the respective wells were calculated, at which time the cell growth rate of the control group at which nothing had been added was taken to be 100%."}, "[4]": {"test_system": "skin samples derived from dorsal body hair skin transplanted in Balb/c nu/nu mice", "test": "Evaluation of hair growth activity: drug applied on skin samples from mouse dorsal body hair skin grafted onto Balb/c nu/nu mice", "assay_type": "in vivo", "description": "C57BL/6N mice (male) and Balb/c nu/nu mice (female) were purchased from Japan SLC, Inc.(Japan) and bred, and were thereafter made available for the following testing. Note that the testing and breeding of animals complied with pertinent laws, regulations, ordinances, and guidelines, and was performed with the approval of the Experimental Ethics Review Board of the Institute of Physical and Chemical Research.\nThe following reagents were respectively prepared. • Placebo: 60% aqueous ethanol solution • Working Example 1: 0.05% solution of palmitoyl dipeptide-5 diaminobutyloyl hydroxythreonine\nTo collect dorsal body hair skin in the form of anagen stage VI skin 12 to 14 days following depilation. C57BL/6N mice of age 7 to 8 weeks were depilated at locations where dorsal body hair skin was intended to be collected, and were bred for 12 to 14 days. The depilated C57BL/6N mice were thereafter euthanized by cervical dislocation, following which a suitable amount of dorsal body hair skin was collected from the locations at which dorsal body hair skin was intended to be collected.\nThe collected skin was immersed in DMEM culture medium (hereinafter “DMEM 10”) which contained 10 mM HEPES, 10% fetal bovine serum, and 1% penicillin/streptomycin solution. The collected dorsal body hair skin was grasped with bent-nose curved tweezers and was treated by immersion for 10 seconds in a sterilizing solution. Sterilization treatment was performed by carrying out treatment with 7% povidone iodine solution two times, treatment with PBS (−) three times, and treatment with DMEM 10 two times, in this order, with fresh solutions respectively being used each time. Following sterilization treatment, these were immersed in clean DMEM 10.\nFollowing sterilization treatment, the dorsal body hair skin was cut into pieces and formed into blocks. The transparent connective tissue which adhered to the cutaneous muscle layer of the skin was excised therefrom using curved scissors, and hair groups were cut into rectangular strips in parallel fashion with respect to the direction of the wave of the hair. At this time, these were cut into blocks such that there were 6 rows of hair follicles along the long axis, adjustment having been carried out so that there were 5 rows of hair follicles along the short axis.\nThe skin samples derived from dorsal body hair skin that were prepared in accordance with the foregoing were grafted onto Balb/c nu/nu mice of age 4 to 6 weeks.\nMore specifically, mice were anesthetized in the usual way using isoflurane gas. The dorsal area of the mice was then disinfected using 7% povidone iodine solution, following which the mice were made to assume a naturally recumbent posture. In addition, a Mani ophthalmic knife (Mani, Inc.; Japan) was used to pierce the skin at the dorsal area of the mice, the grafts which were formed extending from the epidermal layer of the skin to the subdermal layer. The skin samples derived from dorsal body hair skin were inserted into the grafts formed thereat in such fashion as to cause the hair groups to be directed toward the body surface side of the grafts. Skin sample transplanted depth was adjusted so as to cause the top portion of the hair group to be in a state such that it was exposed at the top portion of the graft. To protect the grafts, Nurseban (registered trademark) (Sunplanet Co., Ltd.; Japan) and surgical tape (3M Japan Limited; Japan) were then used as protective tape to cover the grafts at which the skin samples derived from dorsal body hair skin had been transplanted. The protective tape was removed 5 to 7 days following transplantation, and survival of the transplanted skin samples derived from dorsal body hair skin was determined by visual inspection or digital microscopy (Keyence Corporation: Japan), after which follow-up observation was carried out.\nFor the first hair cycle, 60% aqueous ethanol solution was applied thereto as placebo. […]"}, "[5]": {"settings": "0.05% solution applied topically to transplanted skin samples, second hair cycle"}, "[6]": {"settings": "0.05% solution, second hair cycle vs placebo applied in first hair cycle"}}}
{"substance": "palmitoyl dipeptide-5 diaminobutyloyl hydroxythreonine", "values": [{"measurement": "Hair diameter as compared with 60% aqueous ethanol control (in words)", "setting": "[1]; 0.05% solution", "result": "clear increase in hair diameter"}, {"measurement": "Hair shaft diameter, percent increase", "setting": "[1]; second hair cycle vs placebo applied in first hair cycle", "result": 137, "unit": "%"}, {"measurement": "Hair shaft diameter", "setting": "[1]; zigzag hairs after second hair cycle, 0.05% solution, p<0.01", "result": "22.0 ± 1.6 ** μm"}, {"measurement": "Amount of expression of FGF-7 gene as compared with control group (in words)", "setting": "[2]; 1 μM and 10 μM", "result": "increase in the amount of expression of the FGF-7 gene"}, {"measurement": "Amount of expression of FGF-7 gene compared with 100 μM adenosine (in words)", "setting": "[2]; increased amount added", "result": "greater than that which was produced as a result of action of adenosine"}, {"measurement": "Cell growth rate as compared with control group at which nothing had been added (in words)", "setting": "[3]; 24, 48 or 72 hours, FIG. 3", "result": "increase in cell growth rate"}, {"measurement": "Concentration dependence of cell growth rate (in words)", "setting": "[3]; within concentration domain tested", "result": "increased in concentration-dependent fashion"}, {"measurement": "Hair shaft elongation rate", "setting": "[4]; [5]", "result": "0.40 ± 0.08", "unit": "mm/day"}, {"measurement": "Maximum hair shaft length", "setting": "[4]; [5]", "result": "5.1 ± 0.3", "unit": "mm"}, {"measurement": "Hair shaft elongation rate, percent change relative to reference data", "setting": "[4]; [6]", "result": 110.45, "unit": "%"}, {"measurement": "Maximum hair shaft length, percent change relative to reference data", "setting": "[4]; [6]", "result": 103.27, "unit": "%"}, {"measurement": "Hair growth activity (in words)", "setting": "[4]; solution containing 0.05%", "result": "exhibit hair growth activity"}, {"measurement": "Hair shaft elongation rate as compared with reference data (in words)", "setting": "[4]; solution containing 0.05%", "result": "significant improvement"}, {"measurement": "Maximum hair shaft length as compared with reference data (in words)", "setting": "[4]; solution containing 0.05%", "result": "significant improvement"}]}
